ChEMBL document CHEMBL4619816, “GSK973 Is an Inhibitor of the Second Bromodomains (BD2s) of the Bromodomain and Extra-Terminal (BET) Family” (ACS Med Chem Lett, 2020)
Converted amounts (≈) assume the structure as drawn.

Key:
[1] = Chromatographic hydrophobicity index, log D of the compound in pH 7.4 ammonium acetate buffer/acetonitrile gradient by HPLC analysis; assay type: physicochemical
[2] = system: Bromodomain-containing protein 4 (Homo sapiens), O60885 [UNDEFINED MUTATION]; test: Selectivity index, ratio of IC50 for displacement of Alexa Fluor 647 labelled ligand from His6-tagged BRD4 BD1 (1 to 477 residues)/BD2 Y390A mutant (unknown origin) to IC50 for displacement of Alexa Fluor 647 labelled ligand from His6-tagged BRD4 BD2 (1 to 477 residues)/BD1 Y97A mutant (unknown origin)
[3] = target: Bromodomain-containing protein 4 (Homo sapiens, UniProt O60885, Y97A); test: Displacement of Alexa Fluor 647 labelled ligand from His6-tagged BRD4 BD2 (1 to 477 residues)/BD1 Y97A mutant (unknown origin) after 30 mins by TR-FRET assay
[4] = target: Bromodomain-containing protein 4 (Homo sapiens, UniProt O60885, Y390A); test: Displacement of Alexa Fluor 647 labelled ligand from His6-tagged BRD4 BD1 (1 to 477 residues)/BD2 Y390A mutant (unknown origin) after 30 mins by TR-FRET assay
[5] = Clearance in human pooled hepatocytes assessed as per gram tissue at 0.5 uM by LC-MS/MS analysis; assay type: ADME, cell-based, Hepatocyte
[6] = Clearance in Wistar Han rat hepatocytes assessed as per gram tissue at 0.5 uM measured up to 1 hr by LC-MS/MS analysis; assay type: ADME, cell-based, Hepatocyte
Blood = test: Inhibition of LPS-induced MCP1 production in human whole blood preincubated for 30 mins followed by LPS addition measured after 24 hrs by immuno assay; assay type: functional, tissue-based
[7] = Clearance in Wistar Han rat hepatocytes assessed as per gram tissue at 0.5 uM by LC-MS/MS analysis; assay type: ADME, cell-based, Hepatocyte
[8] = Clearance in Beagle dog hepatocytes assessed as per gram tissue at 0.5 uM measured up to 2 hrs by LC-MS/MS analysis; assay type: ADME, cell-based, Canis lupus familiaris, Hepatocyte
[9] = Clearance in human pooled hepatocytes assessed as per gram tissue at 0.5 uM measured up to 2 hrs by LC-MS/MS analysis; assay type: ADME, cell-based, Hepatocyte
[10] = Renal clearance in Wistar Han rat at 1 mg/kg administered as iv infusion for 1 hr and measured up to 7 hrs by LC-MS/MS analysis; assay type: ADME, organism-based; conditions: in vivo
[11] = Half life in Wistar Han rat at 1 mg/kg administered as iv infusion for 1 hr and measured up to 7 hrs by LC-MS/MS analysis; assay type: ADME, organism-based; conditions: in vivo
[12] = Permeability of compound by artificial membrane assay; assay type: ADME; conditions: PAMPA; read-out: permeability
[13] = Oral bioavailability in Wistar Han rat at 3 mg/kg administered via gavage and measured up to 7 hrs by LC-MS/MS analysis; assay type: ADME, organism-based; conditions: in vivo
serum albumin = serum albumin (Homo sapiens, UniProt P02768); test: Binding affinity to human serum albumin; assay type: ADME; conditions: read-out: PB (converted)
Sequence of serum albumin (P02768 whole entry): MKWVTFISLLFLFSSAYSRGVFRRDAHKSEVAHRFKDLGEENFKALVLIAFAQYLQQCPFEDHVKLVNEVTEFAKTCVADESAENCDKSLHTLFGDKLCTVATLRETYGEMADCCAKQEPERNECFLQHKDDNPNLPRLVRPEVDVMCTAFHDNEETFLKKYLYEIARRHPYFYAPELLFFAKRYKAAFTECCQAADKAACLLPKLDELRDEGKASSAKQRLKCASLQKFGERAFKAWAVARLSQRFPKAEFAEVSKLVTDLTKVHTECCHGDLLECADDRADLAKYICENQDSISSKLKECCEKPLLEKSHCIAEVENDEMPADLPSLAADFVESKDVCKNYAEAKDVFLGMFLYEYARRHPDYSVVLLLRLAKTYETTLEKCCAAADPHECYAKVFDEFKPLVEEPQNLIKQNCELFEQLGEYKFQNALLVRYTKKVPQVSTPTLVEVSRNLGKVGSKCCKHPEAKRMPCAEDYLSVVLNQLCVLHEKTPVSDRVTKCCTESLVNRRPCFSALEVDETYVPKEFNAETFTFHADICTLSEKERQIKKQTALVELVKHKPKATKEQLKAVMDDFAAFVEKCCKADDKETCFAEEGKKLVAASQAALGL

[14] = Solubility of compound by CLND method; assay type: physicochemical
[15] = Volume of distribution at steady state in Wistar Han rat at 1 mg/kg administered as iv infusion for 1 hr and measured up to 7 hrs by LC-MS/MS analysis; assay type: ADME, organism-based; conditions: in vivo, read-out: Vdss
[16] = Clearance in Wistar Han rat at 1 mg/kg administered as iv infusion for 1 hr and measured up to 7 hrs by LC-MS/MS analysis; assay type: ADME, organism-based; conditions: in vivo
PBMC = test: Inhibition of LPS-induced MCP1 production in human PBMC; assay type: functional, cell-based
[17] = Clearance in Beagle dog hepatocytes assessed as per gram tissue at 0.5 uM measured up to 1 hr by LC-MS/MS analysis; assay type: ADME, cell-based, Canis lupus familiaris, Hepatocyte

CHI [1] | Ratio IC50 [2] | IC50 [3] [nM] | IC50 [4] [µM] | IC50 (Blood) [nM] | SMILES | other results
4.11 | 1000 | 39.8 | 39.8 | – | CCNC(=O)c1cc(C(=O)NC)c2c(c1)[C@H](c1ccccc1)[C@@H](C)O2 | –
3.55 | 400 | 31.6 | 12.6 | – | CNC(=O)c1cc(C(=O)NC)c2c(c1)[C@H](c1ccccc1)[C@@H](C)O2 | –
3.34 | – | – | – | 200 | CNC(=O)c1cc(C(=O)NC)c2c(c1)[C@H](c1ccccc1)[C@@H](CF)O2 | CLH [5]: < 0.45 mL/min/g; CLH [6]: 3.02 mL/min/g
3.51 | > 300 | 158 | > 50.1 | – | CNC(=O)c1cc(C(=O)NC2CCOC2)cc2c1O[C@H](CF)[C@H]2c1ccccc1 (stereo partly specified) | –
3.12 | > 320 | 158 | > 50.1 | – | CNC(=O)c1cc(C(=O)NCCO)cc2c1O[C@H](C)[C@H]2c1ccccc1 | –
2.18 | 1200 | 39.8 | 50.1 | 158 | CNC(=O)c1cc(C(=O)NCC[C@@H]2CNCCO2)cc2c1O[C@H](CF)[C@H]2c1ccccc1 | CLH [8]: < 0.65 mL/min/g; CLH [7]: 1.28 mL/min/g; CLH [9]: < 0.45 mL/min/g
2.53 | – | – | – | 794 | CNC(=O)c1cc(C(=O)NC2CC2)cc2c1O[C@H](CO)[C@H]2c1ccccc1 | CL renal [10]: 23 mL/min/kg; CLH [7]: < 0.8 mL/min/g; CLH [5]: < 0.45 mL/min/g; half-life [11]: 24 min; Papp [12]: 26.6 ×10⁻⁶ cm/s; bioavailability [13]: 2%; fraction unbound (serum albumin): 0.21; solubility kinetic [14]: > 177 µg/mL; Vd [15]: 1.4 L/kg; clearance [16]: 74 mL/min/kg
3.81 | 200 | 200 | 39.8 | – | CNC(=O)c1cc(C(=O)NCCOC)cc2c1O[C@H](C)[C@H]2c1ccccc1 | –
4.53 | – | – | – | 100 | CNC(=O)c1cc(C(=O)N[C@H]2C[C@@H]2C)cc2c1O[C@H](CF)[C@H]2c1ccccc1 | –
4.24 | 1600 | – | – | 200 | CNC(=O)c1cc(C(=O)NC2CC2)cc2c1O[C@H](C)[C@H]2c1ccccc1 | CL renal [10]: 0.2 mL/min/kg; CLH [7]: 2.48 mL/min/g; CLH [5]: 1.42 mL/min/g; half-life [11]: 24 min; Papp [12]: 44 ×10⁻⁶ cm/s; fraction unbound (serum albumin): 0.11; IC50 (PBMC): 6.31 nM; solubility kinetic [14]: 137 µg/mL (≈ 391 µM); Vd [15]: 2.3 L/kg; clearance [16]: 90 mL/min/kg
3.94 | – | – | – | 200 | CNC(=O)c1cc(C(=O)NC2CC2)cc2c1O[C@H](CF)[C@H]2c1ccccc1 | CLH [5]: < 0.45 mL/min/g; CLH [6]: 3.2 mL/min/g; CLH [17]: < 1.26 mL/min/g
3.28 | 160 | 100 | 15.8 | – | CNC(=O)c1cc(C(N)=O)cc2c1O[C@H](C)[C@H]2c1ccccc1 | –

Second part, the molecule before the results:

SMILES | CHI [1] | Ratio IC50 [2] | IC50 [3] [nM] | IC50 [4] [µM] | IC50 (Blood) [nM] | other results
CCNC(=O)c1cc(C(=O)NC)c(=O)n(Cc2ccccc2)c1 | 2.99 | – | – | – | – | –
CNC(=O)c1cc(C(=O)NCCOC)cn(Cc2ccccc2)c1=O | 2.74 | – | – | – | – | –
CNC(=O)c1cc(C(N)=O)cc2c1O[C@H](CF)[C@H]2c1ccccc1 | 2.89 | – | – | – | – | –
CNC(=O)c1cc(C(=O)NC2CC2)cn(Cc2ccccc2)c1=O [GSK620] | 3.07 | – | – | – | – | –
CNC(=O)c1cc(C(=O)NCCO)cn(Cc2ccccc2)c1=O | 1.9 | – | – | – | – | –
CNC(=O)c1cc(C(=O)NC)c(=O)n(Cc2ccccc2)c1 | 2.38 | – | – | – | – | –
CNC(=O)c1cccc2c1O[C@@H](C)[C@H]2c1ccccc1 | – | 10 | 2510 | – | – | –
CNC(=O)c1cc(C(N)=O)cn(Cc2ccccc2)c1=O | 2.03 | – | – | – | – | –
CNC(=O)c1cc(C(=O)N[C@H]2C[C@H](O)C2)cc2c1O[C@H](CF)[C@H]2c1ccccc1 | 2.92 | 400 | 79.4 | 31.6 | 316 | CLH [7]: 1.84 mL/min/g; CLH [5]: < 0.45 mL/min/g
CNC(=O)c1cc(C(=O)N[C@@H]2C[C@H]2CO)cc2c1O[C@H](CF)[C@H]2c1ccccc1 | 3 | 800 | – | 15.8 | 200 | CLH [8]: < 0.65 mL/min/g; CL renal [10]: 4 mL/min/kg; CLH [7]: 1.65 mL/min/g; half-life [11]: 30 min; Papp [12]: 7.3 ×10⁻⁶ cm/s; bioavailability [13]: 15%; CLH [9]: < 0.45 mL/min/g; solubility kinetic [14]: 114 µg/mL (≈ 286 µM); Vd [15]: 1.7 L/kg; clearance [16]: 98 mL/min/kg
CNC(=O)c1cc(C(=O)NCCC[C@H]2OC[C@H](N)CO2)cc2c1O[C@H](CF)[C@H]2c1ccccc1 | 2.94 | – | – | – | 126 | CL renal [10]: 10 mL/min/kg; CLH [7]: 1.39 mL/min/g; half-life [11]: 36 min; Papp [12]: 4.5 ×10⁻⁶ cm/s; bioavailability [13]: 3%; Vd [15]: 2.1 L/kg; clearance [16]: 73 mL/min/kg
CNC(=O)c1cccc2c1O[C@H](C)[C@H]2c1ccccc1 (single isomer, unassigned) | – | 25 | 794 | – | – | –
CNC(=O)c1cccc2c1O[C@@H](c1ccccc1)[C@@H]2C | – | 5 | 10000 | – | – | –
